Literature values, collected in patent US10654893B2, “Self-assembling peptide compositions” (3-D MATRIX, LTD., priority 2014, dated 2020).

Details: cited from earlier work

| Structure (SMILES) | pKa |
| --- | --- |
| N[C@@H](CC(=O)O)C(=O)O [aspartic acid] | 3.71 |
| N[C@@H](CCC(=O)O)C(=O)O [glutamic acid] | 4.15 |
